Reference: patent publication US10774074B2, “2-(1-heteroarylpiperazin-4-yl)methyl-1,4-benzodioxane derivatives as alpha2C antagonists” (ORION CORPORATION, priority 2015, dated 2020)
Where a name gives a salt, the structure may show the parent alone.

Assays:
human alpha2C receptors = biological target: T1, human alpha2C receptors (Homo sapiens, UniProt P18825); test: Determination of alpha2C antagonistic activity in vitro (FLIPR calcium assay, CHO cells); format: cell-based; conditions: for Kb: Kb calculated with the Cheng-Prusoff equation from IC50, adrenaline as agonist, CHO cells, human alpha2C, read-out: Alpha 2C Adrenaline Kb; for IC50: antagonism of adrenaline stimulation, CHO cells stably transfected with human alpha2C receptor and Gα16, intracellular calcium (FLIPR), read-out: Alpha 2C Adrenaline IC50
T1 construct: host or cells: CHO cells, cotransfected with pCEP-Gα16
T1 sequence (P18825 1-462): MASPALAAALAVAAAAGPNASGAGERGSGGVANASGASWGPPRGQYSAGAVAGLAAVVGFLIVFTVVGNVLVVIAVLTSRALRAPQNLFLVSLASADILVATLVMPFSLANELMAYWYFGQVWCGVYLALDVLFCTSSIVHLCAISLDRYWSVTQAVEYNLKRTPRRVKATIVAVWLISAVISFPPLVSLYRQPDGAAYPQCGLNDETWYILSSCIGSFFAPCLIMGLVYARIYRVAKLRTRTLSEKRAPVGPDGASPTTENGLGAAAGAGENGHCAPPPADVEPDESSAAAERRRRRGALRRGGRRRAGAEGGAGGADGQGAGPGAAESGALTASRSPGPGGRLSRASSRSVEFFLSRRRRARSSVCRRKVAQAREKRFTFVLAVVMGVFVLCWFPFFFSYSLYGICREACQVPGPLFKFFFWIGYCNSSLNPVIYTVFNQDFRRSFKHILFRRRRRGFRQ
Experimental: (§1) EXPERIMENT 1: Determination of alpha2A and alpha2C Antagonistic Activity In Vitro
(§2) Chinese hamster ovary (CHO) cells stably transfected with human alpha2A or alpha2C receptors (University of Turku, Finland) were cotransfected with the expression vector pCEP-Gα16 (Molecular Devices, CA, USA) were used in this experiment. The cells were maintained at 37° C. in a 5% CO2/95% air atmosphere. The cells were cultured in HAM F-12 medium supplemented with 10% FCS, 25 mM HEPES, 100 IU/ml penicillin, 100 µg/ml streptomycin, 500 μg/ml geneticin and 240 μg/ml hygromycin B. The cells were subcultured twice weekly with 0.25% trypsin and 1 mM EDTA. The subculture ratio was 1:5-1:20. The growth medium was changed every 2 or 3 days. All cell culture reagents were from Gibco. The day before the experiment the cells were plated into black-walled, clear bottom 384-well plates at a density of 10,000 cells/well.
(§3) The growth medium was removed and the cells were incubated with the test compounds and the FLIPR Calcium 6 Assay reagent (Molecular Devices, CA, USA) for 2 h at 37° C. in dark. The test compounds (concentrations in cells 100 pM-10 μM) were dissolved in Probenecid-Ringer consisting of 150 mM NaCl, 3 mM KCl, 1.2 mM MgCl2, 1 mM CaCl2, 5 mM glucose, 20 mM HEPES and 2.5 mM probenecid (pH 7.4 adjusted with 1.0 M NaOH). The osmolarity was adjusted to 322 milliosmoles with Osmostat® OM-6020 osmometer (DIC Kyoto Daiichi Kagagu Co. Ltd, Japan). […] All experiments were performed at 37° C. For agonism measurements the test compounds dissolved in Probenecid-Ringer were applied by FLIPR Tetra at 15 s time point. In order to determine antagonism, the cells were stimulated either with 100 nM adrenaline or noradrenaline and the test compounds were added to the cells 2 h before the experiment with the FLIPR Calcium 6 Assay reagent. […] Typically, there were four replicates at each concentration and six different dose levels. For example, if the number of plates from which results were obtained was three, 72 (4*6*3) wells were thus measured to construct dose-response relationship. The samples were excited at 485 nm and emission was detected at 525 nm with a 515 nm cut-off filter. The minimum fluorescence value subtracted from the maximum value for each well was used in the calculations. ScreenWorks version 4.0 software was used for analyzing the results. Fitting of the antagonist dose-response results was performed with the free Hill equation and the IC50 values were fitted with IDBS XE software using model 200: y=(A+(B/(1+((x/C)^D)))), where A is the curve maximum, B the curve minimum and C equals the EC50 value. D is slope factor (Hill). Kb was calculated with the Cheng-Prusoff equation Kb=A/((B/C)+1), where A is the IC50 of antagonist, B the concentration of agonist and C the EC50 of the agonist.

human alpha2A receptors = biological target: T2, human alpha2A receptors (Homo sapiens, UniProt P08913); test: Determination of alpha2A antagonistic activity in vitro (FLIPR calcium assay, CHO cells); format: cell-based; conditions: for Kb: Kb calculated with the Cheng-Prusoff equation from IC50, adrenaline as agonist, CHO cells, human alpha2A, read-out: Alpha 2A Adrenaline Kb; for IC50: antagonism of adrenaline stimulation, CHO cells stably transfected with human alpha2A receptor and Gα16, intracellular calcium (FLIPR), read-out: Alpha 2A Adrenaline IC50
T2 construct: host or cells: CHO cells, cotransfected with pCEP-Gα16
T2 sequence (P08913 1-465): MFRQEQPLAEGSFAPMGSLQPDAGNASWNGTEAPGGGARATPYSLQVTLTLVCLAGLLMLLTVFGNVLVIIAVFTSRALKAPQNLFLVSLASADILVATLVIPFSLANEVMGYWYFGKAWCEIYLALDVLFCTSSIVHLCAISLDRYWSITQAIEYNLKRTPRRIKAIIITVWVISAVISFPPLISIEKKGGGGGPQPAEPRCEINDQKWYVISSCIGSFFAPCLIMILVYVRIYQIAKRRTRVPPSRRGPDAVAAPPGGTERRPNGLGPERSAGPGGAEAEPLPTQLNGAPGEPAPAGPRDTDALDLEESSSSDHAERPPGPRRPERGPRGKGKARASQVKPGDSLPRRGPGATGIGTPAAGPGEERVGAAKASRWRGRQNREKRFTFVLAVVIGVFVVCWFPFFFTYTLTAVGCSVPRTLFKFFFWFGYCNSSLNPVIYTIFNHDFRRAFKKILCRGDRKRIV
Experimental: as §1, §2, §3

| Compound | Kb (human alpha2C receptors) [nM] | IC50 (human alpha2C receptors) [nM] | Kb (human alpha2A receptors) [nM] | IC50 (human alpha2A receptors) [nM] |
| --- | --- | --- | --- | --- |
| Cc1c(N2CCOC2=O)c(N2CCN(C[C@H]3COc4ccccc4O3)CC2)nn1C [Compound of example 5, (S)-3-(3-(4-((2,3-Dihydrobenzo[b][1,4]dioxin-2-yl)methyl)piperazin-1-yl)-1,5-dimethyl-1H-pyrazol-4-yl)oxazolidin-2-one] | 1 | 0.1 | 206 | 4590 |
| COCc1c(N2CCN(C[C@H]3COc4ccccc4O3)CC2)nn(C)c1C [Compound of example 11, (S)-1-((2,3-Dihydrobenzo[b][1,4]dioxin-2-yl)methyl)-4-(4-(methoxymethyl)-1,5-dimethyl-1H-pyrazol-3-yl)piperazine] | 1.62 | 0.165 | 306 | 6810 |
| Cc1c(N2CCC2=O)c(N2CCN(C[C@H]3COc4ccccc4O3)CC2)nn1C [Compound of example 4, (S)-1-(3-(4-((2,3-Dihydrobenzo[b][1,4]dioxin-2-yl)methyl)piperazin-1-yl)-1,5-dimethyl-1H-pyrazol-4-yl)azetidin-2-one] | 0.13 | 0.01 | 217 | – |
| c1ccc(-n2nccc2N2CCN(C[C@H]3COc4ccccc4O3)CC2)nc1 [Compound of example 10, (S)-1-((2,3-Dihydrobenzo[b][1,4]dioxin-2-yl)methyl)-4-(1-(pyridin-2-yl)-1H-pyrazol-5-yl)piperazine] | 1.14 | 0.113 | 350 | 7810 |
| Cc1c(N2CC(C)(C)N(C)C2=O)c(N2CCN(C[C@H]3COc4ccccc4O3)CC2)nn1C [Compound of example 7, (S)-1-(3-(4-((2,3-Dihydrobenzo[b][1,4]dioxin-2-yl)methyl)piperazin-1-yl)-1,5-dimethyl-1H-pyrazol-4-yl)-3,4,4-trimethylimidazolidin-2-one] | < 0.1 | < 0.01 | – | – |
| Cc1c(N2CCCC2=O)c(N2CCN(C[C@H]3COc4ccccc4O3)CC2)nn1C [Compound of example 14, (S)-1-(3-(4-((2,3-Dihydrobenzo[b][1,4]dioxin-2-yl)methyl)piperazin-1-yl)-1,5-dimethyl-1H-pyrazol-4-yl)pyrrolidin-2-one] | 0.29 | 0.03 | 382 | 8520 |
| Cc1c(N2C(=O)c3ccccc3C2=O)c(N2CCN(C[C@H]3COc4ccccc4O3)CC2)nn1C [Compound of example 2, (S)-2-(3-(4-((2,3-Dihydrobenzo[b][1,4]dioxin-2-yl)methyl)piperazin-1-yl)-1,5-dimethyl-1H-pyrazol-4-yl)isoindoline-1,3-dione] | < 0.1 | < 0.01 | < 0.004 | < 0.1 |
| Cc1nc(C#N)c(N2CCN(C[C@H]3COc4ccccc4O3)CC2)o1 [Compound of example 3, (S)-5-(4-((2,3-Dihydrobenzo[b][1,4]dioxin-2-yl)methyl)piperazin-1-yl)-2-methyloxazole-4-carbonitrile] | 912 | 91.9 | > 449 | > 10000 |
| Cc1c(N2C(=O)CC(C)(C)C2=O)c(N2CCN(C[C@H]3COc4ccccc4O3)CC2)nn1C [Compound of example 1, (S)-1-(3-(4-((2,3-Dihydrobenzo[b][1,4]dioxin-2-yl)methyl)piperazin-1-yl)-1,5-dimethyl-1H-pyrazol-4-yl)-3,3-dimethylpyrrolidine-2,5-dione] | < 0.1 | < 0.01 | – | – |
| Cc1c(N2CC(C)(C)NC2=O)c(N2CCN(C[C@H]3COc4ccccc4O3)CC2)nn1C [Compound of example 6, (S)-1-(3-(4-((2,3-Dihydrobenzo[b][1,4]dioxin-2-yl)methyl)piperazin-1-yl)-1,5-dimethyl-1H-pyrazol-4-yl)-4,4-dimethylimidazolidin-2-one] | < 0.1 | < 0.01 | – | – |
| (S)-4-(4-((2,3-Dihydrobenzo[b][1,4]dioxin-2-yl)methyl)piperazin-1-yl)-N-(pyridin-4-yl)-1,2,5-thiadiazol-3-amine dihydrochloride [Compound of example 35] | – | – | 275 | 6130 |

The remaining lines, values ahead:

| Kb (human alpha2C receptors) [nM] | IC50 (human alpha2C receptors) [nM] | Kb (human alpha2A receptors) [nM] | IC50 (human alpha2A receptors) [nM] | Compound |
| --- | --- | --- | --- | --- |
| 4210 | 424 | > 449 | > 10000 | CNC(=O)c1nsnc1N1CCN(C[C@H]2COc3ccccc3O2)CC1 [Compound of example 29, (S)-4-(4-((2,3-Dihydrobenzo[b][1,4]dioxin-2-yl)methyl)piperazin-1-yl)-N-methyl-1,2,5-thiadiazole-3-carboxamide hydrochloride] |
| < 0.1 | < 0.01 | – | – | Cc1nc(N2CCN(C[C@H]3COc4ccccc4O3)CC2)c(N2C(=O)CC(C)(C)C2=O)s1 [Compound of example 32, (S)-1-(4-(4-((2,3-Dihydrobenzo[b][1,4]dioxin-2-yl)methyl)piperazin-1-yl)-2-methylthiazol-5-yl)-3,3-dimethylpyrrolidine-2,5-dione hydrochloride] |
| < 0.1 | < 0.01 | 459 | 10200 | c1ccc2c(c1)OC[C@H](CN1CCN(c3nsnc3Nc3ccncn3)CC1)O2 [Compound of example 19, (S)-4-(4-((2,3-Dihydrobenzo[b][1,4]dioxin-2-yl)methyl)piperazin-1-yl)-N-(pyrimidin-4-yl)-1,2,5-thiadiazol-3-amine] |
| 0.546 | 0.055 | 385 | 8570 | O=C1CCCN1c1nsnc1N1CCN(C[C@H]2COc3ccccc3O2)CC1 [Compound of example 24, (S)-1-(4-(4-((2,3-Dihydrobenzo[b][1,4]dioxin-2-yl)methyl)piperazin-1-yl)-1,2,5-thiadiazol-3-yl)pyrrolidin-2-one] |
| 1070 | 108 | > 449 | > 10000 | CN1CCN(c2nsnc2N2CCN(C[C@H]3COc4ccccc4O3)CC2)C1=O [Compound of example 28, (S)-1-(4-(4-((2,3-Dihydrobenzo[b][1,4]dioxin-2-yl)methyl)piperazin-1-yl)-1,2,5-thiadiazol-3-yl)-3-methylimidazolidin-2-one] |
| 0.38 | 0.04 | > 449 | > 10000 | CC1CCN(c2nsnc2N2CCN(C[C@H]3COc4ccccc4O3)CC2)C1=O (stereo partly drawn) [Compound of example 21, 1-(4-(4-(((S)-2,3-Dihydrobenzo[b][1,4]dioxin-2-yl)methyl)piperazin-1-yl)-1,2,5-thiadiazol-3-yl)-3-methylpyrrolidin-2-one] |
